# Data taken from patent US20250186404A1, “METHODS OF USING A (THIAZOLYL)BENZENESULFONAMIDE DERIVATIVE” (Cyteir Therapeutics, Inc., priority 2023, published 2025).
# System: Daudi (Burkitt Lymphoma) cells
# Assay: Intracellular Lactate Accumulation Assay (Lactate-Glo)
# Assay type: cell-based, human
# Conditions: Homo sapiens; Daudi cells, 2 h treatment, intracellular lactate accumulation; read-out: LactateGlo EC50
# Protocol: Intracellular lactate accumulation after a 2 h treatment with compounds of the present invention was measured in Daudi (Burkitt Lymphoma) cells using the Lactate-Glo Assay (Promega).
# Daudi cells were seeded at 7,500 cells per well in 150 μL of growth medium (RPMI-1640 with 2 mM GlutaMAX+10% FBS) in clear, 96-well, flat-bottom microplates, and incubated overnight (37° C., 5% CO2). Compounds of the present invention were added using an INTEGRA VIAFLO 96 (8 point, 3-fold serial dilution, top concentration 1, 10, or 20 μM, 0.4% final DMSO concentration). After a 2 h incubation (37° C., 5% CO2) microplates containing cells were washed twice with 150 μL ice-cold PBS, resuspended in 25 μL ice-cold PBS containing 12.5 μL 0.6N HCl, and placed on a microplate shaker for 5 min to lyse the cells. Following lysis, 12.5 μL 1M Trizma base was added to neutralize the suspension, and microplates were returned to the microplate shaker for 1 min. Plates were sealed and stored at −20° C. until further processing. On the day of the assay, microplates were thawed for 45 min at room temperate and 50 μL Lactate Detection Reagent (prepared as specified by manufacturer) was added to each well. Microplates were placed on a plate shaker for 1 min and incubated at room temperature for 1 h. Luminescence was measured using a BioTek Cytation 5 Multi-Mode Reader. Curve fitting and calculation of EC50 was performed using GraphPad Prism.
# In addition, Daudi human lymphoma cells were treated with a titration of Compound 67A for 4 h, then intracellular lactate was measured via LactateGlo (FIG. 2). Compound 67A treatment elevates intracellular lactate (FIGS. 3-5). […] Inhibiting MCT function in glycolytic cancer cells leads to an accumulation of intracellular lactate that impairs glycolysis and inhibits tumor cell growth, thereby making MCTs an attractive target for cancer therapy. Compound 67A inhibits the import of MCT ligands into cells, and induces dose-dependent intracellular lactate accumulation that correlates with cytotoxicity. MCT4 expression inversely correlates with lactate accumulation and the extent of Compound 67A cytotoxicity in cells.
row,Compound,EC50 [µM]
1,CC(C)OC(=O)NC1CCC(c2ncc(-c3ccc(NC(=O)NCc4ccccc4)cc3S(=O)(=O)NC(C)(C)C)s2)CC1 (stereo not drawn) [Compound 62B],< 0.05
2,CC(C)OC(=O)Nc1ccc(-c2cnc([C@H]3CC[C@@H](NC(=O)OC(C)C)CC3)s2)c(S(=O)(=O)NC(C)(C)C)c1 [Compound 67B],> 5
3,CNC(=N)Nc1ccc(-c2cnc(C3CCC(NC(=O)OC(C)C)CC3)s2)c(S(=O)(=O)NC(C)(C)C)c1 (stereo not drawn) [Compound 75],> 5
4,COC(=O)NC1CCC(c2ncc(-c3ccc(NC(=O)OC(C)C)cc3S(=O)(=O)NC(C)(C)C)s2)CC1 (stereo not drawn) [Compound 76],> 5

# Biological target: T1, human MCT1 (Homo sapiens, UniProt P53985)
# T1 construct: host or cells: MDCK-II (canine) cells, transient co-transfection
# T1 sequence (P53985 1-500): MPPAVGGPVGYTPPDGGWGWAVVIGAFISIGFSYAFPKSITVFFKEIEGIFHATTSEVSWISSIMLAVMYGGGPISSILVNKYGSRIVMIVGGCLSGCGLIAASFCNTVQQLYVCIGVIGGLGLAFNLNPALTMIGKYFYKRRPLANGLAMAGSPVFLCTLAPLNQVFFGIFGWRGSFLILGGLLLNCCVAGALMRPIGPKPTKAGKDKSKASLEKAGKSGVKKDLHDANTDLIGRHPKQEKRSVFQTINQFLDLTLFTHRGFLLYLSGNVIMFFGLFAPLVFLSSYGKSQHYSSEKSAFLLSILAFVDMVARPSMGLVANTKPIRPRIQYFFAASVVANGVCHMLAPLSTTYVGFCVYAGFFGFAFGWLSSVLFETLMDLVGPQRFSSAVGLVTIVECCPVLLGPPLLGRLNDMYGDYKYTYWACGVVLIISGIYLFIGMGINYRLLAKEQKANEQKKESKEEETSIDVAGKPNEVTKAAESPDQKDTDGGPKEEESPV
# T1 sequence (P35613 140-385 partner limits assumed): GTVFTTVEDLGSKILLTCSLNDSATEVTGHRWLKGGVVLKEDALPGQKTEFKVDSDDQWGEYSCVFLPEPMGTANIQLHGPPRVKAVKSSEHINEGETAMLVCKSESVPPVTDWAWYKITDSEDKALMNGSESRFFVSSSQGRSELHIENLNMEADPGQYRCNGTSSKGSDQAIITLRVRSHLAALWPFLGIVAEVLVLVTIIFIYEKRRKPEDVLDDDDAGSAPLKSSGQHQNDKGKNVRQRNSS
# Assay: MCT1 Transport Inhibition Assay (TPGA uptake, LC-MS/MS)
# Assay type: cell-based
# Conditions: MDCK-II cells overexpressing human MCT1, TPGA transport; read-out: BioIVT MCT1 Transporter IC50
# Protocol: Inhibition of MCT1 transport after treatment with compounds of the present invention was measured in MDCK-II cells that overexpress human MCT1 by quantifying the transport of 2-Thiophene-glycoxylic acid (TPGA) into cells using LC-MS/MS.
# MDCK-II cells are seeded at 60,000 cells per well in growth medium (low-glucose DMEM+10% FBS) in 96-well trans-well membrane plates, and incubated overnight (37° C., 5% CO2). Cells were co-transfected with mammalian expression constructs coding for MCT1 and CD147 at a 2:1 ratio or an empty vector control (GFP) and then incubated for 48 h (37° C., 5% CO2). Cells were washed 3 times with HBSS and cells were preincubated with inhibitors or vehicle control at room temperature in HBSS for 30 min with orbital shaking (60 rpm). HBSS was aspirated from the wells and replaced with HBSS with 25 mM Bis-Tris pH5.5+inhibitor or vehicle control+500 μM TPGA and incubated for 1 min at room temperature with orbital shaking (60 rpm). Both the apical and basolateral side of the trans-well insert were washed 4 times with ice-cold PBS. Cells were lysed with 60 μL of cell extraction solution, and the amount of TPGA in each well was quantified in triplicate by LC-MS/MS. The MCT1-mediated uptake rate was calculated using the following equation: […]
# Percent inhibition for each concentration of inhibitor tested was calculated using the following equation: […]
# Curves were fit to the calculated percent inhibition for each inhibitor, and the IC50 representing the concentration of inhibitor at which MCT1 is inhibited by 50% was calculated from this curve.
# Canine MDCKII cells expressing human MCT1 were treated with a titration of Compound 67A, and import of the MCT1 substrate, 2-TPGA was measured by LC-MS (FIG. 1).
row,Compound,IC50 [µM]
1,CC(C)OC(=O)N[C@H]1CC[C@H](c2ncc(-c3ccc(NC(=O)NCc4ccccc4)cc3S(=O)(=O)NC(C)(C)C)s2)CC1 [Compound 62B],0.15 to 1
2,CC(C)OC(=O)Nc1ccc(-c2cnc([C@H]3CC[C@@H](NC(=O)OC(C)C)CC3)s2)c(S(=O)(=O)NC(C)(C)C)c1 [Compound 67B],1 to 5
